Literature values as cited in patent US10780114B2, “Therapeutic agent for skin wound or rough skin” (JFE MINERAL COMPANY, LTD., priority 2015, dated 2020).

Key:
skin = conditions: in vivo

Zinc ion level leading to increased inflammatory cell infiltration in skin and remarkably delayed reepithelization (skin): not less than 15 mmol/L
Structure (SMILES): [Zn+2] [zinc ions]
Zinc ion concentration that does not exhibit toxicity to a fibroblast (fibroblast): not more than 500 μmol/L
